Laboratory results reported in patent US11802133B2, “Heterocyclic compounds as monoacylglycerol lipase inhibitors” (Hoffmann-La Roche Inc., priority 2018, dated 2023).

Molecular target: MAGL (recombinant wild-type) (Homo sapiens (Human), UniProt Q99685)
Test: 4-NPA assay: MAGL inhibitory activity by hydrolysis of 4-nitrophenylacetate (absorbance at 405 nm)
Format: biochemical
Conditions: measured in 4-NPA assay (footnote [a]); 1 nM MAGL, 300 μM 4-nitrophenylacetate
Description: This assay is hereinafter abbreviated “4-NPA assay”.
The plate was shaked for 1 min at 2000 rpm (Variomag Teleshake) and then incubated for 15 min at RT. […] The final concentrations in the assay were 1 nM MAGL and 300 μM 4-Nitrophenylacetate. […] A second measurement was then done after incubation for 80 min at RT. From the two measurements, the slope was calculated by subtracting the first from the second measurement.

Chain of MAGL (recombinant wild-type) (Q99685 whole entry, species assumed): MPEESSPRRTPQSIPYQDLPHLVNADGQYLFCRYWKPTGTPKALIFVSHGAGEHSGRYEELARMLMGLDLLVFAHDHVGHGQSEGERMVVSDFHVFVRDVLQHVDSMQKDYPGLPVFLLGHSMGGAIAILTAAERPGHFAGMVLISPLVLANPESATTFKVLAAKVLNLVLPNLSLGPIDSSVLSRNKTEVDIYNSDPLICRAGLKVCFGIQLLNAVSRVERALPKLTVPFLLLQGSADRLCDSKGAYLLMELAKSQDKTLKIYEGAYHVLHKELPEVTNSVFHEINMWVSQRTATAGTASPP

Structure (SMILES) | IC50 [nM]
O=C1CO[C@H]2CCN(C(=O)N3CC(COc4ccc(C(F)(F)F)cc4Cl)C3)C[C@H]2N1 [Example 62] | 9
O=C1CO[C@H]2CCN(C(=O)N3CCC(F)(COc4ccc(F)cc4Cl)CC3)C[C@H]2N1 [Example 64, (4aR,8aS)-6-(4-((2-Chloro-4-fluorophenoxy)methyl)-4-fluoropiperidine-1-carbonyl)hexahydro-2H-pyrido[4,3-b][1,4]oxazin-3(4H)-one] | 40
CC(C)(C)c1cnn(CC2CCN(C(=O)N3CC[C@@H]4OCC(=O)N[C@@H]4C3)CC2)c1 [Example 66] | 351
C[C@H]1O[C@H]2CCN(C(=O)N3CCC(Cc4ccc(C(F)(F)F)cc4)CC3)C[C@H]2NC1=O [Example 67] | 120
O=C1CO[C@H]2CCN(C(=O)N3CCC(Cc4nc5ccccc5o4)CC3)C[C@H]2N1 [Example 72] | 108
O=C1CO[C@H]2CCN(C(=O)N3CCC(Oc4ccc(Cl)c(-c5ccc(Cl)cc5)c4)CC3)C[C@H]2N1 [Example 73] | 8
C[C@H]1CN(C(=O)N2CC[C@@H]3OCC(=O)N[C@@H]3C2)CC[C@H]1COc1ccc(F)cc1Cl [Example 74] | 3
O=C1CO[C@H]2CCN(C(=O)N3CC(OCc4ccc(C(F)(F)F)cc4Cl)C3)C[C@H]2N1 [Example 75] | 2
O=C1CO[C@H]2CCN(C(=O)N3CC(OCc4ccc(C(F)(F)F)cc4)C3)C[C@H]2N1 [Example 76] | 8
O=C1CO[C@H]2CCN(C(=O)N3CC(OCc4ccc(OC(F)(F)F)cc4F)C3)C[C@H]2N1 [Example 77] | 16
CC1(COc2ccc(F)cc2Cl)CCN(C(=O)N2CC[C@@H]3OCC(=O)N[C@@H]3C2)CC1 [Example 79, (4aR,8aS)-6-(4-((2-chloro-4-fluorophenoxy)methyl)-4-methylpiperidine-1-carbonyl)hexahydro-2H-pyrido[4,3-b][1,4]oxazin-3(4H)-one] | 1
O=C1CO[C@H]2CCN(C(=O)N3CCC(Cc4ccc(C(F)(F)F)cc4-c4cn[nH]c4)CC3)C[C@H]2N1 [Example 81] | 6
O=C1CO[C@H]2CCN(C(=O)N3CCC(OCc4ccccc4Cl)C3)C[C@H]2N1 (some centres unmarked) [Example 93] | 124
O=C1CO[C@H]2CCN(C(=O)N3CCC(OCc4cccc(Cl)c4)C3)C[C@H]2N1 (some centres unmarked) [Example 94] | 150
O=C1CO[C@H]2CCN(C(=O)N3CCC(Cc4ccc(C(F)(F)F)cc4C4CC4)CC3)C[C@H]2N1 [Example 95] | 8
O=C1CO[C@H]2CCN(C(=O)N3CCC(COc4ccc(Cl)cc4)C3)C[C@H]2N1 (some centres unmarked) [Example 96] | 293

Structure (SMILES) | IC50 [nM]
O=C1CO[C@H]2CCN(C(=O)N3CCC(OCc4ccc(Cl)cc4)C3)C[C@H]2N1 (some centres unmarked) [Example 97] | 146
Cc1cc(C(F)(F)F)ccc1CC1CCN(C(=O)N2CC[C@@H]3OCC(=O)N[C@@H]3C2)CC1 [Example 98] | 10
O=C1CO[C@H]2CCN(C(=O)N3CCC(Cc4ccc(C(F)(F)F)cc4Cl)CC3)C[C@H]2N1 [Example 99] | 12
O=C1CO[C@H]2CCN(C(=O)N3CCC(Cc4ccc(C(F)(F)F)cc4)C3)C[C@H]2N1 (some centres unmarked) [Example 100] | 82
O=C1CO[C@H]2CCN(C(=O)N3CC(OCc4cc(F)cc(C(F)(F)F)c4)C3)C[C@H]2N1 [Example 101] | 11
O=C1CO[C@H]2CCN(C(=O)N3CC(COCc4c(F)cccc4C(F)(F)F)C3)C[C@H]2N1 [Example 102] | 22
CC1C(OCc2ccc(C(F)(F)F)cc2)CN1C(=O)N1CC[C@@H]2OCC(=O)N[C@@H]2C1 (stereo partly drawn) [Example 105, (4aR,8aS)-6-[2-Methyl-3-[[4-(trifluoromethyl)phenyl]methoxy]azetidine-1-carbonyl]-4,4a,5,7,8,8a-hexahydropyrido[4,3-b][1,4]oxazin-3-one] | 285
O=C1CO[C@H]2CCN(C(=O)N3CC(F)(COc4ccc(F)cc4Cl)C3)C[C@H]2N1 [Example 109] | 223
O=C1CO[C@H]2CCN(C(=O)N3CC(OCc4ccc(C(F)(F)F)cc4F)(C(F)(F)F)C3)C[C@H]2N1 [Example 110] | 2180
CC1(OCc2ccc(C(F)(F)F)cc2F)CN(C(=O)N2CC[C@@H]3OCC(=O)N[C@@H]3C2)C1 [Example 111] | 20
O=C1CO[C@H]2CCN(C(=O)N3CC(OCc4cc(C(F)(F)F)c(F)cc4F)C3)C[C@H]2N1 [Example 112] | 12
O=C1CO[C@H]2CCN(C(=O)N3CC(OCc4cc(C(F)(F)F)ccc4F)C3)C[C@H]2N1 [Example 113] | 5
O=C1CO[C@H]2CCN(C(=O)N3CC(OCc4ccc(C(F)(F)F)c(F)c4)C3)C[C@H]2N1 [Example 114] | 5
COc1cc(C(F)(F)F)ccc1COC1CN(C(=O)N2CC[C@@H]3OCC(=O)N[C@@H]3C2)C1 [Example 115] | 3
O=C1CO[C@H]2CCN(C(=O)N3CC(OCc4ccc(Cl)cc4C(F)(F)F)C3)C[C@H]2N1 [Example 116] | 4
CC1C(OCc2ccc(C(F)(F)F)cc2)CN1C(=O)N1CC[C@@H]2OCC(=O)N[C@@H]2C1 (some centres unmarked) [Example 117] | 10
